# Several values for one entry are separate records, joined by “and”; a condition that tells them apart may be missing. Equal entries are not always repeated. Where two headings read alike, the source gives them in different places.
# Tests used:
# human erythrocytes = molecular target: human erythrocytes; set-up: method as in PMID 2390055; settings: read-out: Ki for inhibition of sugar uptake; cited from earlier work
# [1] = molecular target: insulin-stimulated rat adipocytes; settings: read-out: Ki for inhibition of sugar uptake; cited from earlier work
# GLUT4 [2] = molecular target: T1, GLUT4 (Mus musculus, UniProt P14142); experiment: Kinetic (Scatchard) analysis of indinavir effect on ATB-BMPA labeling of GLUT4 in LDM; type: binding; set-up: LDM contains small intracellular vesicles of GLUT4 and GLUT1; endogenous in cells; host or cells: low-density microsome fraction of differentiated 3T3-L1 adipocytes; settings: for Kd: Scatchard plot
# T1 sequence (P14142 1-509): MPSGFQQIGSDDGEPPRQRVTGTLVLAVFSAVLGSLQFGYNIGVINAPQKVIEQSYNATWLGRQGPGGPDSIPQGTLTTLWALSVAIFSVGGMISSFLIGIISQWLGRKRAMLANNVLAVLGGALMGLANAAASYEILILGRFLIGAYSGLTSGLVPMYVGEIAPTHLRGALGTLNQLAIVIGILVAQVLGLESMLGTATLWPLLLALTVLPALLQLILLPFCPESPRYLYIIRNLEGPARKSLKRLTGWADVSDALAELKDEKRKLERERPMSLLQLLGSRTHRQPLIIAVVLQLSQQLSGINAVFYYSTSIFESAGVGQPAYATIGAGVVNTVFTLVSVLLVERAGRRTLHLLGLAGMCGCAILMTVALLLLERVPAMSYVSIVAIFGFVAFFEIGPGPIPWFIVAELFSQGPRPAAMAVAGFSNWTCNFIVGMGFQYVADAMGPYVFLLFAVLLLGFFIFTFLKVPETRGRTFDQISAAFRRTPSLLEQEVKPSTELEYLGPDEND
# Description: ATB-BMPA (50, 100, 200, 300 µM final concentration) was then added for an additional 10 min (5 min at room temperature, 5 min at 4 °C). Samples (110 µl final volume) were UV irradiated as described above. After removal of excess label with a desalting spin column, GLUT4 protein was immunoprecipitated from Thesit-solubilized LDM using a GLUT4 C-terminal directed antibody. ATB-BMPA-bound GLUT4 was analyzed by immunoblot analysis using an IR Dye 800 CW fluorescent streptavidin (LI-COR) and quantified with an Odyssey Infrared Imaging System. Identical samples that were not UV irradiated were used to correct for non-specific binding. The free ATB-BMPA concentration was assumed to be equal to the total ATB-BMPA concentration since the label concentration far exceeded the GLUT4 concentration. The data was expressed as Scatchard plots, bound/free versus bound. The Bmax and Kd values were determined from the horizontal intercept and the negative […], respectively.
# GLUT1 = molecular target: T2, GLUT1 (Mus musculus, UniProt P17809); experiment: ATB-BMPA photolabeling of low-density microsomes (LDM) from 3T3-L1 adipocytes, GLUT1; type: binding; settings: for IC50: LDM 200 µg, biotinylated ATB-BMPA 50 µM, mean ± S.E., n = 3, read-out: Half-maximal inhibition (IC50) of ATB-BMPA binding to GLUT1
# T2 construct: LDM contains small intracellular vesicles of GLUT4 and GLUT1; endogenous in cells; host or cells: low-density microsome fraction of differentiated 3T3-L1 adipocytes
# T2 sequence (P17809 1-492): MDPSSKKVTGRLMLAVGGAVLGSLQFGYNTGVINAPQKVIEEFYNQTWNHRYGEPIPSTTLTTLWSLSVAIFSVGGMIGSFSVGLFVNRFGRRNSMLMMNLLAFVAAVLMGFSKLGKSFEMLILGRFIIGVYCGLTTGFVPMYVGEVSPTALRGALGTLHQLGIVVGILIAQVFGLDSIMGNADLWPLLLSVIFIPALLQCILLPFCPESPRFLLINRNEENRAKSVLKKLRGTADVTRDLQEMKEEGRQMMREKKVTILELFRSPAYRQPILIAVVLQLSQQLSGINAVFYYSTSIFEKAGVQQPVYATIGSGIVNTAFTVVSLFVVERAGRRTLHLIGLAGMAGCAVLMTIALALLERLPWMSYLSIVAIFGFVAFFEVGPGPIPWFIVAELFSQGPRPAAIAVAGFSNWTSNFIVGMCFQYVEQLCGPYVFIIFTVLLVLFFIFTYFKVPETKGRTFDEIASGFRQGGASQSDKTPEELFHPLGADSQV
# Description: (§1) 3T3-L1 fibroblasts were grown to confluency and 48 h later subjected to differentiation as previously described. 3T3-L1 adipocytes were used 10 – 14 days after differentiation. Six culture dishes (15 cm) of adipocytes were serum-starved overnight, washed 3 times with ice-cold HES buffer (50 mM Hepes, pH 7.4, 255 mM sucrose, and 1 mM EDTA) containing Roche complete protease inhibitors (Roche Applied Science, Mannheim, Germany), scraped into 5 ml of the same buffer, and then homogenized with either a ball-bearing homogenizer or with a Potter-Elvehjem tissue grinder and a PTFE pestle. The low-density microsome (LDM) fraction was obtained by differential centrifugation as described previously. LDM were resuspended in phosphate buffer (25 mM phosphate, pH 7.4, 100 mM NaCl, 5% glycerol) containing complete Roche protease inhibitors.
# (§2) Inhibitors were added to LDM (200 µg protein unless otherwise stated) for 10 min at room temperature. Samples (final volume 110 µl) were then incubated for 10 min at room temperature in the dark with biotinylated ATB-BMPA (50 µM final concentration) and then placed on ice prior to UV irradiation. Reactions were transferred to a 24-well low protein retention culture dish (Costar, Corning, NY) and then irradiated at room temperature 5 cm from a Green Spot UV lamp for 1 min (30 sec of light, followed by 30 sec of darkness, followed by 30 sec of light).
# (§3) 20 µl of BSA (1.5 mg/ml final concentration) was added to the UV irradiated samples in a siliconized eppendorph tube. Excess biotinylated ATB-BMPA label was removed using a 0.5 ml Zeba Spin Desalting Column (Pierce). Biotinylated proteins were isolated essentially as described previously. Membranes were solubilized for 30 min at 4°C with 2% Thesit detergent buffer containing protease inhibitors. After centrifugation at 16,000 x g for 10 min, the supernatants were incubated overnight at 4°C with 50 µl of high capacity Streptavidin Agarose resin (Pierce). Precipitates were washed 3 times with 1% Thesit detergent buffer, twice with 0.1% Thesit detergent buffer, and once with phosphate buffer. Biotinylated proteins were eluted at 95 – 100°C for 20 min in 60 µl of 2X Laemmli Sample Buffer containing 40 mM dithiothreitol. Half of the eluted proteins were subjected to SDS-PAGE and transferred to nitrocellulose. Immunoblot analysis was carried out using GLUT4 and GLUT1 specific antibodies and quantified using an Odyssey Infrared Imaging System (LI-COR Biosciences, Lincoln, NE).
# primary rat adipocytes [3] = experiment: 2-Deoxyglucose uptake in insulin-stimulated primary rat adipocytes (predominantly GLUT4); type: cell-based; settings: for Effect on 2-deoxyglucose uptake (GLUT4 transporter activity): primary rat adipocytes
# Description: Adipocytes from epididymal fat pads were prepared from male Wistar rats weighing 150 – 200 g (from Charles River Laboratories, Inc., Wilmington, MA) as previously described. Adipocytes were stimulated with 1 µM insulin for 30 min at 37°C prior to use. 2-Deoxyglucose uptakes were performed by adding 80 µl of the cell suspension to 80 µl of Krebs-Ringer bicarbonate Hepes buffer (KRB) (120 mM NaCl, 4 mM KH2PO4, 1 mM MgSO4, 1 mM CaCl2, 10 mM NaHCO3, 200 nM adenosine, 30 mM Hepes, pH 7.4) containing 3% bovine serum albumin. HIV protease inhibitors / vehicle were added 5 min prior to the initiation of the reaction. Uptakes were initiated with the addition of 20 µl of [^3H]2-deoxyglucose (final 2-deoxyglucose concentration 50 µM; 0.5 µCi/assay). After 1 min at 37 °C, reactions were quenched with cytochalasin B to a final concentration of 0.4 mM. The cells were separated by spinning the reaction through dinonylphthalate as previously described and the intracellular radioactivity was quantified by liquid scintillation counting. Non-specific uptake measured in the presence of 20 µM cytochalasin B (Sigma) was subtracted from the experimental values.
# GLUT4 [4] = molecular target: T1, GLUT4; experiment: ATB-BMPA photolabeling of low-density microsomes (LDM) from 3T3-L1 adipocytes, GLUT4; type: binding; set-up: LDM contains small intracellular vesicles of GLUT4 and GLUT1; endogenous in cells; host or cells: low-density microsome fraction of differentiated 3T3-L1 adipocytes; settings: for IC50: LDM 200 µg, biotinylated ATB-BMPA 50 µM, mean ± S.E., n = 3, read-out: Half-maximal inhibition (IC50) of ATB-BMPA binding to GLUT4; for Selectivity GLUT4 vs GLUT1, inhibition of ATB-BMPA labeling: LDM of 3T3-L1 adipocytes
# Description: as §1, §2, §3
# 3T3-L1 fibroblasts = experiment: 2-Deoxyglucose uptake in 3T3-L1 fibroblasts (express only GLUT1); type: cell-based; settings: for Effect on 2-deoxyglucose uptake (GLUT1 transporter activity): 3T3-L1 fibroblasts
# Description: 3T3-L1 fibroblasts were grown to confluency in Dulbecco's modified Eagle's medium (DMEM) supplemented with 10% calf serum. The uptake of [^3H]2-Deoxyglucose (50 µM) was measured in Krebs-Ringer phosphate buffer for 6 min at 37°C as previously described. HIV protease inhibitors were added 6 min prior to the start of the reaction. Non-specific uptake measured in the presence of 20 µM cytochalasin B (Sigma) was subtracted from the experimental values.
# myotubes = test system: myotubes; set-up: method as in PMID 1401073; settings: read-out: IC50 for inhibition of 2-deoxy-glucose uptake into myotubes; cited from earlier work
# GLUT4 [5] = molecular target: T1, GLUT4; settings: Xenopus oocytes; read-out: Binding affinity (KI) for GLUT4 in the oocyte system; cited from earlier work
# primary rat adipocytes [6] = settings: read-out: KI from inhibition of zero trans glucose uptake; cited from earlier work
# [7] = 10 µM PI (therapeutic concentration)
SMILES,Effect on ATB-BMPA labeling of GLUT1 (GLUT1; [7]),Effect on ATB-BMPA labeling of GLUT1 (GLUT1; 50 µM PI),IC50 (GLUT1),Effect on ATB-BMPA labeling of GLUT4 (GLUT4 [4]; [7]),Effect on ATB-BMPA labeling of GLUT4 (GLUT4 [4]; 50 µM PI),IC50 (GLUT4 [4]),Effect on 2-deoxyglucose uptake (GLUT4 transporter activity) (primary rat adipocytes [3]; 10 µM PI),Effect on 2-deoxyglucose uptake (GLUT4 transporter activity) (primary rat adipocytes [3]; 50 µM PI),Effect on 2-deoxyglucose uptake (GLUT1 transporter activity) (3T3-L1 fibroblasts; 10 µM PI),Effect on 2-deoxyglucose uptake (GLUT1 transporter activity) (3T3-L1 fibroblasts; 50 µM PI),other results
O=C(CCCCC1SCC2NC(=O)NC21)NCCCCCC(=O)NCCOCCOCCOc1cc(C2(C(F)(F)F)N=N2)ccc1C(=O)NC(CO[C@H]1[C@H](O)[C@H](O)C(O)O[C@@H]1CO)CO[C@H]1[C@H](O)[C@H](O)C(O)O[C@@H]1CO (stereo partly drawn) [ATB-BMPA],,,,,,,,,,,"Ki (human erythrocytes): ~350 µM; Ki [1]: ~350 µM; Kd (GLUT4 [2]; 0 µM indinavir, read-out: Kd of ATB-BMPA binding to GLUT4): 75 µM; Kd (GLUT4 [2]; 10 µM indinavir, read-out: Kd (apparent) of ATB-BMPA binding to GLUT4): 152 µM; Kd (GLUT4 [2]; 20 µM indinavir, read-out: Kd (apparent) of ATB-BMPA binding to GLUT4): 218 µM; Kd (GLUT4 [2]; 50 µM indinavir, read-out: Kd (apparent) of ATB-BMPA binding to GLUT4): 510 µM"
"COC(=O)N[C@H](C(=O)N[C@@H](Cc1ccccc1)[C@@H](O)CN(Cc1ccc(-c2ccccn2)cc1)NC(=O)[C@@H](NC(=O)OC)C(C)(C)C)C(C)(C)C [Atazanavir, atazanavir]",no effect,affected,59 ± 4.8 µM,no effect,affected,66 ± 3.3 µM,no effect,affected,no effect,affected,"Selectivity GLUT4 vs GLUT1, inhibition of glucose uptake (primary rat adipocytes [3]; primary rat adipocytes vs 3T3-L1 fibroblasts): non-specific GLUT inhibitor; Selectivity GLUT4 vs GLUT1, inhibition of ATB-BMPA labeling (GLUT4 [4]): non-specific GLUT inhibitor; Selectivity GLUT4 vs GLUT1, inhibition of ATB-BMPA labeling (GLUT4 [4]; listed as atazanavir): non-selective"
"C=C1[C@@H](C)[C@H]2[C@H](Cc3ccccc3)NC(=O)[C@]23OC(=O)/C=C/[C@H](O)CCC[C@@H](C)C/C=C/[C@H]3[C@@H]1O [CB, cytochalasin B]",,,0.35 µM and 0.36 µM,,,0.44 ± 0.07 µM,,,,,IC50 (myotubes): 0.4 µM
CCC[C@@]1(CCc2ccccc2)CC(O)=C([C@H](CC)c2cccc(NS(=O)(=O)c3ccc(C(F)(F)F)cn3)c2)C(=O)O1 [Tipranavir],no effect,no effect,,no effect,no effect,,no effect,no effect,no effect,no effect,

# Continued, in another order:
Effect on ATB-BMPA labeling of GLUT1 (GLUT1; [7]),Effect on ATB-BMPA labeling of GLUT1 (GLUT1; 50 µM PI),IC50 (GLUT1),Effect on ATB-BMPA labeling of GLUT4 (GLUT4 [4]; [7]),Effect on ATB-BMPA labeling of GLUT4 (GLUT4 [4]; 50 µM PI),IC50 (GLUT4 [4]),SMILES,Effect on 2-deoxyglucose uptake (GLUT4 transporter activity) (primary rat adipocytes [3]; 10 µM PI),Effect on 2-deoxyglucose uptake (GLUT4 transporter activity) (primary rat adipocytes [3]; 50 µM PI),Effect on 2-deoxyglucose uptake (GLUT1 transporter activity) (3T3-L1 fibroblasts; 10 µM PI),Effect on 2-deoxyglucose uptake (GLUT1 transporter activity) (3T3-L1 fibroblasts; 50 µM PI),other results
,,178 ± 43 µM,,,20.7 ± 3.9 µM,"CC(C)(C)NC(=O)[C@@H]1CN(Cc2cccnc2)CCN1C[C@@H](O)C[C@@H](Cc1ccccc1)C(=O)N[C@H]1c2ccccc2C[C@H]1O [Indinavir, indinavir]",reduced,affected,unaffected,affected but a lesser extent than GLUT4,"Ki (GLUT4 [5]): 50 µM; IC50 (primary rat adipocytes [3]; Rattus norvegicus, Adipocyte, insulin-stimulated, 50 µM 2-deoxyglucose, read-out: IC50 for inhibition of 2-deoxyglucose uptake in primary rat adipocytes): 11 µM; Ki (primary rat adipocytes [6]): 15 µM; Ki (GLUT4 [2]; from Kd(apparent) = Kd (1 + [I]/KI), LDM 50 µg, read-out: KI, competitive inhibition of ATB-BMPA binding to the cytoplasmic glucose binding site of GLUT4): 8.2 µM; IC50 (3T3-L1 fibroblasts; Mus musculus, 3T3-L1, basal, 50 µM 2-deoxyglucose, read-out: IC50 for inhibition of 2-deoxyglucose uptake in 3T3-L1 fibroblasts): 241 µM"
,affected,,,affected,,"CC(C)c1nc(CN(C)C(=O)N[C@H](C(=O)N[C@@H](Cc2ccccc2)C[C@H](O)[C@H](Cc2ccccc2)NC(=O)OCc2cncs2)C(C)C)cs1 [Ritonavir, ritonavir]",,affected,,affected,

# — PMC3179492, “HIV Protease Inhibitors Act as Competitive Inhibitors of the Cytoplasmic Glucose Binding Site of GLUTs with Differing Affinities for GLUT1 and GLUT4” (PLoS ONE, 2011)
